# “Also recorded” adds a separate entry of the source.
# What was measured:
# [1] = test system: reelin in Entorhinal Cortex (EC2); assay: reelin in situ hybridization in entorhinal cortex after chronic levetiracetam; format: in vivo, rat; settings: levetiracetam 10 mg/kg/day, osmotic minipumps, four weeks (28 days), aged-impaired rats
# Method: Under isoflurane anesthesia, memory-impaired aged rats were implanted subcutaneously in the intrascapular region with osmotic mini-pumps (ALZET, Durect Corporation, Cupertino, Calif.) with levetiracetam (10 mg/kg/day) or saline vehicle for four weeks prior to perfusion. Young rats, which served as controls, received either saline vehicle in mini-pumps or no implantation.
# At the end of the 4-week treatment period, rats were anesthetized with isoflurane and perfused transcardiacally with 0.1 M phosphate buffer saline, followed by 4% paraformaldehyde in phosphate buffer. Brains were removed and post-fixed in paraformaldehyde overnight. The brains were then moved into 4% paraformaldehyde in phosphate buffer containing 16% sucrose. […]
# Probe templates were synthesized as described in Haberman et al. (2008). […] The final probe was resuspended in RNase-free water and the specific activity was determined by scintillation counter.
# In situ hybridization was carried out as described by Haberman et al., (2008). […] Slides were dried overnight, exposed to a phosphoimager screen, and quantified by using ImageQuant (GE Healthcare). Digital images were acquired of entorhinal cortical sections from the same levels for all animals and the subregion of interest was outlined and quantified. […]
# [2] = test system: Age-Impaired (AI) Long-Evans rats; assay: Morris Water Maze retention trial, levetiracetam in aged-impaired rats; format: in vivo, rat
# Method: The MWM apparatus consists of a large, circular pool (diameter 1.83 m; height, 0.58 m) filled with water (27° C.) that is made opaque through the addition of non-toxic pigment or some other substance. In the typical “hidden platform” version of the test, rats are trained to find a camouflaged white escape platform (height, 34.5 cm) that is positioned in the center of one quadrant of the maze about 1.0 cm below the water surface. This platform can be retracted to the bottom of the tank or raised to its normal position from outside the maze during behavioral testing. The location of the platform remains constant from trial to trial. Because there are no local cues that mark the position of the platform, the rat's ability to locate it efficiently from any starting position at the perimeter of the pool depends on using information surrounding the maze. The maze is surrounded by black curtains to which white patterns are affixed to provide a configuration of spatial cues. A second platform (height 37.5 cm), with its surface painted black is elevated 2 cm above the water surface during cue training to control for factors unrelated to cognition. The behavior of a rat in the pool is recorded by a camera that is suspended 2.5 m above the center of the pool. The camera is connected to a video tracking system (HVS Image Advanced Tracker VP200) and a PC computer running HVS software developed by Richard Baker of HVS Image, Hampton, UK. The MWM protocol is optimized for sensitivity to the effects of aging on cognition and for measures of reliable individual differences within the aged population of out-bred Long-Evans rats (Gallagher et al. Behav. Neurosci. 107:618-626, (1993)). Rats receive three trials per day for 8 consecutive days, using a 60 sec inter-trial interval. On each training trial, the rat is released into the maze from one of four equally spaced starting positions around the perimeter of the pool. […] At the completion of the protocol using the hidden platform, rats are assessed for cue learning using the visible platform. […]
# aMCI subjects = assay: Verbal Paired Associates Test - Delayed Recall; format: in vivo, human; settings: levetiracetam 125 mg twice a day for two weeks
# From the text: Breaks are provided to the subject as needed.
structure (smiles),measurement,setting,value
"CC[C@@H](C(N)=O)N1CCCC1=O [levetiracetam, (2S)-2-(2-oxopyrrolidin-1-yl)butanamide]",levels of reelin in Entorhinal Cortex (EC2) (reelin mRNA expression),[1],significantly increased; also recorded: restores
same,time spent in the target quadrant (performance vs vehicle),"[2]; levetiracetam 5 mg/kg/day i.p., retention trial 24 hours after two training days",did not significantly improve
same,time spent in the target annulus,"[2]; levetiracetam 10 mg/kg/day i.p., retention trial",effectiveness of the 10 mg/kg/day levetiracetam treatment was also seen
same,"time spent in the target quadrant, percentage of total swimming time","[2]; levetiracetam 10 mg/kg/day i.p., retention trial 24 hours after two training days",approximately 35%
same,performance in Verbal Paired Associates Test—Delayed Recall,aMCI subjects,fail to rescue performance

# Source: patent US20160030391A1, “METHODS AND COMPOSITIONS FOR IMPROVING COGNITIVE FUNCTION” (THE JOHNS HOPKINS UNIVERSITY, priority 2013, published 2016)
